The text below walks through data of patent publication US4011221A, “S-Inosylcysteine and a process for producing the same” (Funai Pharmaceutical Industries, Ltd., priority 1974, dated 1977).

Experiment [1] deals with chick embryo heart cells. As to the kind of experiment: Effect on proliferation of chick embryo heart cells (Experiments 1 and 2). It counts as cell-based. To be noted: for Cell number + S.E. / activity at 50 µg/mL: Experiment 1, 50 μg/ml; for Cell number + S.E.: 3 days incubation; for activity at 50 µg/mL / activity at 20 µg/mL: Gallus gallus, control = 100.0; for activity at 50 µg/mL: 72 h, read-out: Growth rate %; for Cell number ± S.E. / activity at 20 µg/mL: Experiment 2, 20 μg/ml; for Cell number ± S.E.: 1 day with compound after 3 days of incubation; for activity at 20 µg/mL: 24 h, read-out: Growth rate (%). On the procedure:
A. Effect of S-inosylcysteine on proliferation of chick embryo heart cells.
(§1) Method: The hearts excised from 13-day-old chick embryos were cut into pieces 1 to 2 mm in diameter under sterile conditions. After washing with calcium and magnesium-free phosphate buffered saline (PBS), the pieces of hearts were treated with a solution of 0.1% trypsin in PBS freed from calcium and magnesium ions, and the supernatant fraction was discarded. The residue was treated with a solution of 0.1% trypsin in PBS freed from calcium and magnesium ions, and the supernatant fractions containing isolated cells were collected. The procedure was repeated 3 times. The supernatant fractions were combined and diluted with cold culture medium containing 10% fetal calf serum, sodium penicillin G (100 units per ml) and sulfate streptomycin (1 μg per ml), and centrifuged at 150 xG. The resulting pellet was washed twice with the culture medium and diluted cautiously with the same culture medium to give a suspension which contains 200,000 cells per ml. One ml of the suspension was poured into each of 28 culture tubes which were equally divided into 7 groups. The cells were cultured at 37° C in an incubator. After 1 day of incubation the culture medium of the tubes was removed and 1 ml of each culture medium containing compound shown in Table I was added thereto. After additional 3 days of incubation the culture medium was removed and the cells were then treated with 1 ml of 0.1 M citric acid containing 0.1% crystal violet. The number of cells was counted with a hemocytometer in quadruplicate after vigorous shaking.
(§2) Method: The culture procedure for chick embryo heart cells was employed as described in Experiment 1. After 3 days of incubation, the culture medium was removed and 1 ml of each culture medium containing compounds shown in Table II was added thereto. After an additional 1 day of incubation the number of cells was counted.

For experiment [2], the system named is chick embryo heart cells. As to the kind of experiment: Effect on proliferation of chick embryo heart cells in the presence of a growth inhibitor, KCN (Experiments 3 and 4). It counts as cell-based. To be noted: for activity at 50 µg/mL / activity at 20 µg/mL: Gallus gallus; for activity at 20 µg/mL: 24 h. The method, then:
as §1, with “After” for “Method: The hearts excised from 13-day-old chick embryos were cut into pieces 1 to 2 mm in diameter under sterile conditions. After”, “The resulting pellet was washed twice with the culture medium and diluted cautiously with the same culture medium to give a suspension which contains 200,000 cells per ml.” left out, “shaking. […] After 3 days of incubation, the culture medium was removed and 1 ml of each culture medium containing compounds shown in Table II was added thereto. After an additional 1 day of incubation the number of cells was counted. […] Method: The culture procedure for chick embryo heart cells was employed as described in Experiment 1. After one day of incubation, the culture medium was removed and 1 ml of each culture medium containing KCN (1.7 μg per ml) and compounds shown in Table III were added thereto.” for “shaking.”

For experiment [3], the system named is chick embryo heart cells. Nature of the experiment: Effect on proliferation of chick embryo heart cells in the presence of 6-mercaptopurine (Experiment 5). To be noted: Experiment 5, 20 μg/ml, 6-mercaptopurine 5 μg per ml; for activity at 20 µg/mL: Gallus gallus, 24 h. It counts as cell-based. On the procedure: as §1, §2
Method: Same as in Experiment 2 except that 6-mercaptopurine (5 μg per
ml) was added to each culture

Another experiment relates to pylorus ligation ulcer. As to the kind of experiment: Effect on pylorus ligation ulcer in rats (Experiments 6 and 7). It is filed as in vivo, Male Wister rats. To be noted: Experiment 6, 50 mg/kg, p.o.; for Mean ulcer index ± S.E.: 10 hours from ligation. On the procedure:
a. Effect of S-inosylcysteine on pylorus ligation ulcer.
Method: Male Wister rats (Keari Gifu-Lab.), aged 7 weeks were used. After fasting for 48 hours, rats weighing 210 to 230 g were divided into 6 groups of 10 rats. The pylorus of stomach was ligated under light anesthesia with pentobarbital sodium (25 mg per kg, i.p.). Immediately after the ligation, a psysiological saline was orally administered to one group and a solution of each tested compound (50 mg per kg) was orally administered to the remaining 5 groups. After these rats were kept without food and water for 10 hours from the ligation, the stomach was removed under anesthesia with pentobarbital sodium (30 mg per kg, i.p.). The gastric contents were aspirated and the stomach was fixed by means of the injection of 10 ml of a 2% formalin solution into the lumen. The stomach was opened along its greater curvature. The severity of the lesion of the rumen, that is, the degree of ulcer was expressed as ulcer index according to the method of Yokotani (Folia pharmacol. Japon. 56, 1373, (1960). The results are shown in Table VI.
*Inhibition rate was calculated as follows: […]
Method: The same method as described in Experiment 6 was employed. The
effect of S-inosyl-L-cysteine
on pylorus ligation ulcer was examined with intramuscular administration.

Where [4] appears, read: Experiment 3, 50 μg/ml, KCN 1.7 μg per ml.
Setting [5] is: Experiment 3, 50 μg/ml, KCN 1.7 μg per ml, KCN control = 100.0, read-out: Growth Rate %.
The mark [6] stands for this setting: Experiment 3, 50 μg/ml, KCN 1.7 μg per ml, simultaneous with Experiment 1, read-out: Growth rate (%) with respect to control of Table I.
[7] abbreviates: Experiment 4, 20 μg/ml, KCN 1.7 μg per ml.
The mark [8] stands for this setting: Experiment 4, 20 μg/ml, KCN 1.7 μg per ml, KCN control = 100.0, read-out: Growth rate (%).
The mark [9] stands for this setting: Experiment 4, 20 μg/ml, KCN 1.7 μg per ml, simultaneous with Experiment 2, read-out: Growth rate (%) with respect to control of Table II.
Setting [10] is: its control = 100.0, read-out: Growth Rate (%).
[11] abbreviates: simultaneous with Experiment 2, read-out: Growth rate (%) with respect to control of Table II.

`N[C@@H](CS)C(=O)O` [L-cysteine]: the “Cell number + S.E.” value with chick embryo heart cells [1] is given as 50.5 ± 1.3 ×10^4 cells. In addition, the activity at 50 µg/mL came out at 99.2% in the experiment with chick embryo heart cells [1], 131% in the experiment on chick embryo heart cells [2] (setting [5]) and 82.3% with chick embryo heart cells [2] (setting [6]). Further, the “Cell number ± S.E.” value in the experiment with chick embryo heart cells [2] (setting [4]) is 41.9 ± 6.3 ×10^4 cells.

With `Nc1ncnc2c1ncn2[C@@H]1O[C@H](CSC[C@H](N)C(=O)O)[C@@H](O)[C@H]1O` [S-adenosyl-L-cysteine], the “Cell number ± S.E.” value was 74.8 ± 4.7 ×10^4 cells with chick embryo heart cells [1], 64.2 ± 3.0 ×10^4 cells with chick embryo heart cells [2] (setting [7]) and 70.7 ± 1.2 ×10^4 cells in the experiment on chick embryo heart cells [3]. Also, the activity at 20 µg/mL in the experiment with chick embryo heart cells [1] was determined as 91.7%; in the experiment on chick embryo heart cells [2] (setting [8]), 97.6%; in the experiment on chick embryo heart cells [2] (setting [9]), 78.7%; with chick embryo heart cells [3] (setting [10]), 104%; with chick embryo heart cells [3] (setting [11]), 86.6%. Besides, in the experiment on pylorus ligation ulcer, the “Inhibition rate (%) of ulcer” value worked out at 13%. Moreover, in the experiment with pylorus ligation ulcer, the “Mean ulcer index ± S.E.” value is 12.1 ± 1.2.

Consider `Nc1ncnc2c1ncn2[C@@H]1O[C@H](CSCC[C@H](N)C(=O)O)[C@@H](O)[C@H]1O` [S-adenosyl-L-homocysteine], for which the entries for the “Cell number ± S.E.” value in the experiment on chick embryo heart cells [1], with chick embryo heart cells [2] (setting [7]) and in the experiment with chick embryo heart cells [3] were 71.5 ± 3.4 ×10^4 cells, 65.2 ± 1.8 ×10^4 cells and 75.7 ± 1.6 ×10^4 cells, respectively. For the same molecule, the activity at 20 µg/mL in the experiment on chick embryo heart cells [1] was found to be 87.6%; in the experiment with chick embryo heart cells [2] (setting [8]), 99.1%; in the experiment on chick embryo heart cells [2] (setting [9]) it was 79.9%; with chick embryo heart cells [3] (setting [10]), 111%; in the experiment on chick embryo heart cells [3] (setting [11]), 92.8%. For the same molecule, the “Inhibition rate (%) of ulcer” value with pylorus ligation ulcer came to 19%. Also, the “Mean ulcer index ± S.E.” value with pylorus ligation ulcer is 11.3 ± 0.7.

`Nc1nc2c(ncn2[C@@H]2O[C@H](CSCC[C@H](N)C(=O)O)[C@@H](O)[C@H]2O)c(=O)[nH]1` [S-guanosyl-L-homocysteine]: the “Cell number ± S.E.” value is 69.2 ± 1.8 ×10^4 cells in the experiment on chick embryo heart cells [1], 66.3 ± 1.4 ×10^4 cells in the experiment with chick embryo heart cells [2] (setting [7]) and 72.3 ± 5.5 ×10^4 cells in the experiment on chick embryo heart cells [3]. In addition, the activity at 20 µg/mL in the experiment on chick embryo heart cells [1] turned out to be 84.8%; in the experiment with chick embryo heart cells [2] (setting [8]), 101%; in the experiment on chick embryo heart cells [2] (setting [9]), 81.3%; in the experiment on chick embryo heart cells [3] (setting [10]), 106%; in the experiment with chick embryo heart cells [3] (setting [11]) it was 88.6%. The “Inhibition rate (%) of ulcer” value in the experiment on pylorus ligation ulcer is given as -8%. In the experiment on pylorus ligation ulcer, the “Mean ulcer index ± S.E.” value is given as 15.0 ± 1.8.

As to `N[C@@H](CCSC[C@H]1O[C@@H](n2cnc3c(=O)[nH]cnc32)[C@H](O)[C@@H]1O)C(=O)O` [S-inosyl-L-homocysteine], the “Cell number ± S.E.” value with chick embryo heart cells [1] is 78.2 ± 7.5 ×10^4 cells; in the experiment with chick embryo heart cells [2] (setting [7]), 73.5 ± 1.7 ×10^4 cells; with chick embryo heart cells [3], 65.3 ± 3.7 ×10^4 cells. The activity at 20 µg/mL with chick embryo heart cells [1] worked out at 95.8%; with chick embryo heart cells [2] (setting [8]), 112%; with chick embryo heart cells [2] (setting [9]), 90.1%; in the experiment with chick embryo heart cells [3] (setting [10]) it was 95.6%; in the experiment on chick embryo heart cells [3] (setting [11]), 80%. The “Inhibition rate (%) of ulcer” value in the experiment on pylorus ligation ulcer is recorded as 12%. For the same molecule, the “Mean ulcer index ± S.E.” value in the experiment on pylorus ligation ulcer stood at 12.3 ± 1.1.

Take `Nc1ncnc2c1ncn2[C@@H]1O[C@H](CO)[C@@H](O)[C@H]1O` [adenosine]: the “Cell number + S.E.” value with chick embryo heart cells [1] is on record as 44.1 ± 5.6 ×10^4 cells. Further, the activity at 50 µg/mL is 86.6% in the experiment with chick embryo heart cells [1], 104% with chick embryo heart cells [2] (read-out: Growth Rate %) and 65.4% in the experiment on chick embryo heart cells [2] (read-out: Growth rate (%) with respect to control of Table I). In addition, the “Cell number ± S.E.” value in the experiment on chick embryo heart cells [2] (setting [4]) is recorded as 33.3 ± 1.9 ×10^4 cells.

On to `OC[C@H]1O[C@@H](n2cnc3c(O)ncnc32)[C@H](O)[C@@H]1O` [inosine], for which the “Cell number + S.E.” value in the experiment on chick embryo heart cells [1] is 54.1 ± 2.0 ×10^4 cells. For the same molecule, the activity at 50 µg/mL in the experiment with chick embryo heart cells [1] stood at 106%; with chick embryo heart cells [2] (setting [5]), 116%; in the experiment with chick embryo heart cells [2] (setting [6]) it was 73.1%. Besides, in the experiment with chick embryo heart cells [2] (setting [4]), the “Cell number ± S.E.” value was 37.2 ± 4.4 ×10^4 cells.
